Values of other authors as cited in patent publication US9211237B2, “Film foaming hydroalcoholic foam” (STIEFEL RESEARCH AUSTRALIA PTY LTD, priority 2003, dated 2015).

Settings: UV absorber

COc1ccc(C(=O)CC(=O)c2ccc(C(C)(C)C)cc2)cc1 [Parsol 1789, butyl methoxydibenzolymethane]
maximum absorption: ~360 nm

CCCCC(CC)COC(=O)C=Cc1ccc(OC)cc1 (centres unmarked) [Parsol MCX, octinoxate]
maximum absorption: 308 nm
